Results taken from ChEMBL document CHEMBL3885861, “Open TG-GATES”.

Species on record: Rattus norvegicus
Experiment: Open TG-GATES - Regimen: Daily Repeat
Format: toxicity, organism-based, Sprague-Dawley
Parameters: regimen Daily Repeat, gender Male, age 6 weeks
Conditions: in vivo, po, 400 mg/kg, route gavage, dose level High; for APTT / Bas / Eos / Fbg / Hb / Ht / Lym / MCH / MCHC / MCV / Mono / Neu / PT / Plat / RBC / Ret / WBC: tissue Blood; for KIDNEY_L / KIDNEY_R / KIDNEY_TOTAL: tissue Kidney; for LIVER: tissue Liver; for A/G / ALP / ALT / AST / BUN / CRE / Ca / Cl / DBIL / GLC / IP / K / LDH / Na / PL / RALB / TBIL / TC / TG / TP / gamma-GTP: tissue Plasma

## COc1ccc(Cc2nccc3cc(OC)c(OC)cc23)cc1OC [PAPAVERINE]
72 h, time 3 day
  TERMINAL_BW: 239.4 g
  APTT: 23.7 s
  Bas: 0%
  Eos: 1%
  Fbg: 314.4 mg/dL
  Hb: 13.5 g/dL
  Ht: 39.4%
  Lym: 73%
  MCH: 20.9 pg
  MCHC: 34.2%
  MCV: 61.1 fL
  Mono: 2%
  Neu: 23%
  PT: 15 s
  Plat: 111.3 x10_4/uL
  RBC: 644.8 x10_4/ul
  Ret: 5%
  WBC: 85.7 x10_2/uL
  KIDNEY_L: 1 g
  KIDNEY_R: 1.1 g
  KIDNEY_TOTAL: 2.1 g
  LIVER: 11.8 g
  A/G: 1.3
  ALP: 1542 IU/L
  ALT: 48.4 IU/L
  AST: 75.8 IU/L
  BUN: 16.6 mg/dL
  CRE: 0.1 mg/dL
  Ca: 10.9 mg/dL
  Cl: 107.4 meq/L
  DBIL: 0 mg/dL
  GLC: 179.8 mg/dL
  IP: 7.3 mg/dL
  K: 4.3 meq/L
  LDH: 160.2 IU/L
  Na: 143 meq/L
  PL: 148.4 mg/dL
  RALB: 3.1 g/dL
  TBIL: 0.008 mg/dL
  TC: 83 mg/dL
  TG: 78.4 mg/dL
  TP: 5.6 g/dL
  gamma-GTP: 1.4 IU/L
[…], time 7 day
  TERMINAL_BW: 267.4 g
  APTT: 24.2 s
  Bas: 0%
  Eos: 0.4%
  Fbg: 337.4 mg/dL
  Hb: 13.6 g/dL
  Ht: 40.4%
  Lym: 74.4%
  MCH: 20.9 pg
  MCHC: 33.7%
  MCV: 61.9 fL
  Mono: 3%
  Neu: 20.8%
  PT: 15.2 s
  Plat: 126.4 x10_4/uL
  RBC: 652 x10_4/ul
  Ret: 5.8%
  WBC: 107.2 x10_2/uL
  KIDNEY_L: 1.2 g
  KIDNEY_R: 1.2 g
  KIDNEY_TOTAL: 2.3 g
  LIVER: 13.4 g
  A/G: 1.2
  ALP: 1249.6 IU/L
  ALT: 42.6 IU/L
  AST: 68 IU/L
  BUN: 18 mg/dL
  CRE: 0.2 mg/dL
  Ca: 10.9 mg/dL
  Cl: 107 meq/L
  DBIL: 0 mg/dL
  GLC: 191.8 mg/dL
  IP: 7.2 mg/dL
  K: 4.2 meq/L
  LDH: 164 IU/L
  Na: 142 meq/L
  PL: 149.4 mg/dL
  RALB: 3.1 g/dL
  TBIL: 0 mg/dL
  TC: 79.4 mg/dL
  TG: 91 mg/dL
  TP: 5.8 g/dL
  gamma-GTP: 2 IU/L
[…], time 14 day
  TERMINAL_BW: 315.9 g
  APTT: 24.2 s
  Bas: 0%
  Eos: 1%
  Fbg: 321.6 mg/dL
  Hb: 14.1 g/dL
  Ht: 42.3%
  Lym: 75.4%
  MCH: 19.3 pg
  MCHC: 33.3%
  MCV: 58.2 fL
  Mono: 2.8%
  Neu: 19.2%
  PT: 15.4 s
  Plat: 128.5 x10_4/uL
  RBC: 728.6 x10_4/ul
  Ret: 4.3%
  WBC: 108.5 x10_2/uL
  KIDNEY_L: 1.4 g
  KIDNEY_R: 1.4 g
  KIDNEY_TOTAL: 2.7 g
  LIVER: 14.4 g
  A/G: 1.1
  ALP: 1494.6 IU/L
  ALT: 46.4 IU/L
  AST: 71 IU/L
  BUN: 17 mg/dL
  CRE: 0.2 mg/dL
  Ca: 10.5 mg/dL
  Cl: 106.8 meq/L
  DBIL: 0 mg/dL
  GLC: 183 mg/dL
  IP: 7.5 mg/dL
  K: 4.1 meq/L
  LDH: 142.6 IU/L
  Na: 142.8 meq/L
  PL: 143.8 mg/dL
  RALB: 3.1 g/dL
  TBIL: 0.02 mg/dL
  TC: 73.6 mg/dL
  TG: 81.8 mg/dL
  TP: 5.8 g/dL
  gamma-GTP: 2.4 IU/L
[…], time 28 day
  TERMINAL_BW: 373.4 g
  APTT: 25.6 s
  Bas: 0%
  Eos: 1%
  Fbg: 328 mg/dL
  Hb: 14.4 g/dL
  Ht: 43.7%
  Lym: 71.8%
  MCH: 18.6 pg
  MCHC: 33%
  MCV: 56.6 fL
  Mono: 2.2%
  Neu: 23.8%
  PT: 15.9 s
  Plat: 109.9 x10_4/uL
  RBC: 772.5 x10_4/ul
  Ret: 2.6%
  WBC: 94.3 x10_2/uL
  KIDNEY_L: 1.5 g
  KIDNEY_R: 1.5 g
  KIDNEY_TOTAL: 2.9 g
  LIVER: 16.5 g
  A/G: 1.1
  ALP: 1162 IU/L
  ALT: 47 IU/L
  AST: 69.5 IU/L
  BUN: 19.8 mg/dL
  CRE: 0.2 mg/dL
  Ca: 10.3 mg/dL
  Cl: 106.2 meq/L
  DBIL: 0 mg/dL
  GLC: 182 mg/dL
  IP: 6.6 mg/dL
  K: 4 meq/L
  LDH: 141 IU/L
  Na: 142.5 meq/L
  PL: 146.2 mg/dL
  RALB: 3.2 g/dL
  TBIL: 0.0075 mg/dL
  TC: 82.2 mg/dL
  TG: 86 mg/dL
  TP: 6.1 g/dL
  gamma-GTP: 2.2 IU/L
